# Laboratory results published in US20230399287A1, “NOVEL COMPOUNDS” (Sitryx Therapeutics Limited, priority 2020, published 2023).
# Tests used:
# IL-1β = test: THP-1 AlphaLISA IL-1β cytokine assay; format: cell-based; details: Homo sapiens, THP-1, differentiated THP-1 cells
# Method: (§1) Measuring Inhibitory Effects on IL-1V and IL-6 Cytokine Output from THP-1s
# (§2) The cytokine inhibition profiles of compounds of formula (I) were determined in a differentiated THP-1 cell assay. All assays were performed in RPMI-1640 growth medium (Gibco), supplemented with 10% fetal bovine serum (FBS; Gibco), 1% penicillin-streptomycin and 1% sodium pyruvate unless specified otherwise. The IL-1β and IL-6 cytokine inhibition assays were run in a background of differentiated THP-1 cells as described below. All reagents described were from Sigma-Aldrich unless specified otherwise. Compounds were prepared as 10 mM DMSO stocks.
# (§3) THP-1 cells were expanded as a suspension up to 80% confluence in appropriate growth medium. Cells were harvested, suspended, and treated with an appropriate concentration of phorbol 12-myristate 13-acetate (PMA) over a 72 hr period (37° C./5% CO2).
# (§4) Following 72 hrs of THP-1 cell incubation, cellular medium was removed and replaced with fresh growth media containing 1% of FBS. Working concentrations of compounds were prepared separately in 10% FBS treated growth medium and pre-incubated with the cells for 30 minutes (37° C./5% CO2). Following the 30 minute compound pre-incubation, THP-1s were treated with an appropriate concentration of LPS and the THP-1s were subsequently incubated for a 24 hr period (37° C./5% CO2). An appropriate final concentration of Nigericin was then dispensed into the THP-1 plates and incubated for 1 hour (37° C./5% CO2) before THP-1 supernatants were harvested and collected in separate polypropylene 96-well holding plates.
# (§5) Reagents from each of the IL-1β and IL-6 commercial kits (Perkin Elmer) were prepared and run according to the manufacturer's instructions. Subsequently, fluorescence signal detection in a microplate reader was measured (EnVision® Multilabel Reader, Perkin Elmer).
# (§6) Percentage inhibition was calculated per cytokine by normalising the sample data to the high and low controls used within each plate (+/−LPS respectively). Percentage inhibition was then plotted against compound concentration and the 50% inhibitory concentration ([…]) was determined from the resultant concentration-response curve.
# IL-6 = test: THP-1 AlphaLISA IL-6 cytokine assay; format: cell-based; details: Homo sapiens, THP-1, differentiated THP-1 cells, LPS 24 hr then Nigericin 1 hour
# Method: as §1, §2, §3, §4, §5, §6
# [1] = Hepatocyte stability assay (human); format: in vitro ADME; details: human, cryopreserved hepatocytes, 10 μM compound, 60 min, read-out: T½
# Excerpt: (§7) Defrosted cryo-preserved hepatocytes (viability>70%) were used to determine the metabolic stability of a compound via calculation of intrinsic clearance (Clint; a measure of the removal of a compound from the liver in the absence of blood flow and cell binding). Clearance data are particularly important for in vitro work as they can be used in combination with in vivo data to predict the half-life and oral bioavailability of a drug.
# (§8) The metabolic stability in hepatocytes assay involved a time-dependent reaction using both positive and negative controls. The cells must be pre-incubated at 37° C. then spiked with test compound (and positive control); samples taken at pre-determined time intervals were analysed to monitor the change in concentration of the initial drug compound over 60 minutes. A buffer incubation reaction (with no hepatocytes present) acted as a negative control and two cocktail solutions, containing compounds with known high and low clearance values (verapamil/7-hydroxycoumarin and propranolol/diltiazem), acted as positive controls. • 1. The assay was run with a cell concentration of 0.5×10^6 cells/mL in Leibovitz buffer. • 2. All compounds and controls were run in duplicate. • 3. Compound concentration was 10 μM. • 4. All compounds and controls were incubated with both cells and buffer to show turnover is due to hepatic metabolism. • 5. All wells on the incubation plate had 326.7 μL of either cells or buffer added. • 6. Prior to assay, cell and buffer-only incubation plates were preincubated for 10 mins at 37° C. • 7. The assay was initiated by adding compounds, 3.3 μL of 1 mM in 10% DMSO-90% Buffer; final DMSO concentration is 0.1%. • 8. Samples were taken at regular timepoints (0, 5, 10, 20, 40, 60 min) until 60 mins. • 9. Sample volume was 40 μL and added to 160 μL of crash solvent (acetonitrile with internal standard) and stored on ice. • 10. At the end of the assay, the crash plates were centrifuged at 3500 rpm for 20 mins at 4° C. • 11. 80 μL of clear supernatant was removed and mixed with 80 μL of deionised water before being analysed by LC-MS/MS.
# (§9) Raw LC-MS/MS data were exported to, and analysed in, Microsoft Excel for determination of intrinsic clearance. The percentage remaining of a compound was monitored using the peak area of the initial concentration as 100%. Intrinsic clearance and half-life values were calculated using a graph of the natural log of percentage remaining versus the time of reaction in minutes. Half-life (min) and intrinsic clearance (Clint in μL min^−1 10^−6 cells) values were calculated using the gradient of the graph (the elimination rate constant, k) and Equations 1 and 2.
# hepatocytes [2] = test: Hepatocyte stability assay (human); format: in vitro ADME; details: 10 μM compound, 60 min
# Excerpt: as §7, §8, §9
# [3] = Hepatocyte stability assay (mouse); format: in vitro ADME; details: mouse, cryopreserved hepatocytes, 10 μM compound, 60 min, read-out: T½
# Excerpt: as §7, §8, §9
# hepatocytes [4] = test: Hepatocyte stability assay (mouse); format: in vitro ADME; details: 10 μM compound, 60 min
# Excerpt: as §7, §8, §9
# [5] = LPS 24 hr then Nigericin 1 hour
SMILES,IC50 (IL-1β; [5]),IC50 (IL-6),half-life at 10 μM [1],Clint (hepatocytes [2]),half-life at 10 μM [3],Clint (hepatocytes [4]),IC50 (IL-1β; data from repeated experiments)
"C=C(C(=O)O)C(C)(C)C(=O)OC1(c2ccc(C(F)(F)F)cc2)CCC1 [Example 30, 3,3-dimethyl-2-methylene-4-oxo-4-(1-(4-(trifluoromethyl)phenyl)cyclobutoxy) butanoic acid]",1.2 µM,> 100 µM,0.617 h,41 μL min^−1 10^−6 cells,0.25 h,104 μL min^−1 10^−6 cells,–
"C=C(CC(=O)OC1(c2ccc(S(F)(F)(F)(F)F)cc2)CCC1)C(=O)O [Example 18, 2-methylene-4-oxo-4-(1-(4-(pentafluoro-λ^6-sulfaneyl)phenyl)cyclobutoxy)butanoic acid]",1.8 µM,62.1 µM,3.63 h,8 μL min^−1 10^−6 cells,0.633 h,50 μL min^−1 10^−6 cells,–
"C=C(CC(=O)OC1(c2ccc(Cl)cn2)CCC1)C(=O)O [Example 51, 4-(1-(5-chloropyridin-2-yl)cyclobutoxy)-2-methylene-4-oxobutanoic acid]",6.4 µM,> 31.6 µM,> 7.67 h,<3 μL min^−1 10^−6 cells,> 7.67 h,<3 μL min^−1 10^−6 cells,–
"C=C(CC(=O)OC1(c2ccc(C(F)(F)F)nc2)CCC1)C(=O)O [Example 22, 2-methylene-4-oxo-4-(1-(6-(trifluoromethyl)pyridin-3-yl)cyclobutoxy)butanoic acid]",5.1 µM,> 100 µM,> 7.67 h,<3 μL min^−1 10^−6 cells,8.87 h,4 μL min^−1 10^−6 cells,–
"C=C(CC(=O)OC1(c2ccc(Br)cn2)CCC1)C(=O)O [Example 50, 4-(1-(5-bromopyridin-2-yl)cyclobutoxy)-2-methylene-4-oxobutanoic acid]",1.5 µM,> 100 µM,> 7.67 h,<3 μL min^−1 10^−6 cells,7 h,4 μL min^−1 10^−6 cells,–
"C=C(CC(=O)OC(C)(C)c1ccc(C(F)(F)F)cn1)C(=O)O [Example 57, 2-methylene-4-oxo-4-((2-(5-(trifluoromethyl)pyridin-2-yl)propan-2-yl)oxy)butanoic acid]",6.6 µM,> 31.6 µM,> 7.67 h,<3 μL min^−1 10^−6 cells,2.52 h,10 μL min^−1 10^−6 cells,–
"C=C(CC(=O)O[C@]1(c2ccc(C(F)(F)F)cc2)C[C@H](OC)C1)C(=O)O [Example 42, 4-((cis)-3-methoxy-1-(4-(trifluoromethyl)phenyl)cyclobutoxy)-2-methylene-4-oxobutanoic acid]",17.1 µM,> 31.6 µM,7.47 h,4 μL min^−1 10^−6 cells,> 7.67 h,<3 μL min^−1 10^−6 cells,–
"C=C(C(=O)O)C(C)(C)C(=O)OC1(c2ccc(C(F)(F)F)cn2)CCC1 [Example 59, 3,3-dimethyl-2-methylene-4-oxo-4-(1-(5-(trifluoromethyl)pyridin-2-yl)cyclobutoxy)butanoic acid]",2.9 µM,> 31.6 µM,2.3 h,11 μL min^−1 10^−6 cells,> 7.67 h,<3 μL min^−1 10^−6 cells,–
"C=C(CC(=O)O[C@H](c1ccc(C(F)(F)F)cc1)C(F)(F)F)C(=O)O [Example 34, (R)-2-methylene-4-oxo-4-(2,2,2-trifluoro-1-(4-(trifluoromethyl)phenyl)ethoxy)butanoic acid]",12.2 µM,> 31.6 µM,0.867 h,26 μL min^−1 10^−6 cells,0.433 h,48 μL min^−1 10^−6 cells,–
"C=C(CC(=O)OC1(c2ccc(C(C)(F)F)cc2)CCC1)C(=O)O [Example 19, 4-(1-(4-(1,1-difluoroethyl)phenyl)cyclobutoxy)-2-methylene-4-oxobutanoic acid]",1.2 µM,> 68.1 µM,7.45 h,4 μL min^−1 10^−6 cells,1.35 h,23 μL min^−1 10^−6 cells,–
"C=C(CC(=O)OC1(c2ccc(Br)cc2)CCC1)C(=O)O [Example 5, 4-(1-(4-bromophenyl)cyclobutoxy)-2-methylene-4-oxobutanoic acid]",0.7 µM,> 31.6 µM,1.48 h,15 μL min^−1 10^−6 cells,1.13 h,25 μL min^−1 10^−6 cells,–
"C=C(CC(=O)OC1(c2ccc(C(F)(F)F)cn2)CCC1)C(=O)O [Example 27, 2-methylene-4-oxo-4-(1-(5-(trifluoromethyl)pyridin-2-yl)cyclobutoxy)butanoic acid]",1.4 µM,> 100 µM,> 7.67 h,<3 μL min^−1 10^−6 cells,> 7.67 h,<3 μL min^−1 10^−6 cells,4 µM
"C=C(CC(=O)OC1(c2ccc(C(F)(F)F)s2)CCC1)C(=O)O [Example 32, 2-methylene-4-oxo-4-(1-(5-(trifluoromethyl)thiophen-2-yl)cyclobutoxy)butanoic acid]",5.2 µM,> 100 µM,1.53 h,17 μL min^−1 10^−6 cells,1.27 h,21 μL min^−1 10^−6 cells,–
"C=C(CC(=O)OC1(c2ccc(C#N)cc2)CCC1)C(=O)O [Example 25, 4-(1-(4-cyanophenyl)cyclobutoxy)-2-methylene-4-oxobutanoic acid]",15.5 µM,> 100 µM,5.65 h,4 μL min^−1 10^−6 cells,2.95 h,9 μL min^−1 10^−6 cells,–
"C=C(CC(=O)OC1(c2ccc(C(F)(F)F)cc2)CC2(CCC2)C1)C(=O)O [Example 35, 2-methylene-4-oxo-4-((2-(4-(trifluoromethyl)phenyl)spiro[3.3]heptan-2-yl)oxy)butanoic acid]",8.8 µM,> 31.6 µM,1.43 h,14 μL min^−1 10^−6 cells,0.5 h,73 μL min^−1 10^−6 cells,–
"C=C(CC(=O)OC1(c2ccc(C(F)(F)F)cc2)CC2(CC2)C1)C(=O)O [Example 61, 2-methylene-4-oxo-4-((5-(4-(trifluoromethyl)phenyl)spiro[2.3]hexan-5-yl)oxy)butanoic acid]",5.5 µM,> 100 µM,3.58 h,6 μL min^−1 10^−6 cells,1.72 h,21 μL min^−1 10^−6 cells,–
